Results as given in patent publication US20190315711A1 (eXIthera Pharmaceuticals, Inc., priority 2016, published 2019).

Legend:
Factor Xa = target: T1, Factor Xa (Homo sapiens, UniProt P00742); assay: Dose response assay for protease inhibitors: Factor Xa; format: biochemical; settings: ratio versus Factor XIa
T1 construct: Factor Xa; 0.2 μM in 50% glycerol (9.2 μg/mL)
Procedure: (§1) • Assay buffer: 20 mM Hepes, pH 7.4; 150 mM NaCl; 0.02% Tween 20 • Compounds: 10 mM stocks in DMSO • Substrate: 20 mM Glp-Pro-Arg-AMC, 25 mg/2.3 mL H2O (store at +4° C.) [Factor XIa, thrombin, and trypsin] • 20 mM Pro-Phe-Arg-AMC (Bachem I-1295), 25 mg/2.2 mL H2O or Boc-Leu-Gly-Arg-AMC (Bachem I-1105), 25 mg/2.07 mL H2O (store at +4° C.) [Factor Xa] • Enzyme: Factor XIa; 0.25 M in 50% glycerol (20 μg/mL) • Trypsin; 0.2 μM in 50% glycerol (4.8 μg/mL) • Thrombin; 0.2 μM in 50% glycerol (7.34 μg/mL) • Factor Xa; 0.2 μM in 50% glycerol (9.2 μg/mL)
(§2) • 1. Dilute the substrate to 100 μM in assay buffer (30 μL/6 mL). The enzyme is diluted to 0.5 nM just prior to use (12 L/6 mL for Factor XIa; 15 μL/6 mL for all of the rest.) • 2. Pipette 50 μL of substrate into each well of the 96 well (12×8) microtiter plate. (Column 1 is used as the 100% activity control and receives no compound, and Column 12 is the blank and receives no enzyme.) Add an additional 46 μL to column 2. • 3. Pipette 4 μL of each compound into the appropriate well in column 2 of the plate (unknowns assayed in triplicate, standard assayed in duplicate). The final compound concentration will be 1/50th of the stock. • 4. Serially two-fold dilute the compound by mixing the sample in column 2, removing 50 μL to the next well (column 3), mix and remove to column 4, etc. until column 11. After mixing column 11, remove 50 μL and discard. • 5. Pipette 50 μL of buffer into column 12. Initiate the reaction by adding 50 μL of enzyme solution to each well of columns 1-11 as rapidly as possible. • 6. Read the plate in a spectrophotometer (SpectraMax) at 30° C., wherein each well is measured every 60 s for 30 min. For Factor Xa assays, each well is measured every 1 min for a total of 60 min. • 7. For Factor XIa assays, the compounds are assayed, in duplicate, at 3 different starting concentrations, 20, 2, and 0.2 μM; 1:10, 1:100, and 1:1000 dilution of 10 mM stock or at 2, 0.2, and 0.02 μM; 1:100, 1:1000, and 1:10,000 dilution of 10 mM stock. Data for each concentration are combined for graphing and data fitting. • 8. Data can be used both for estimation of IC50 and for estimation of Kon.

Trypsin = target: T2, Trypsin (Bos taurus, UniProt P00760); assay: Dose response assay for protease inhibitors: trypsin; format: biochemical; settings: ratio versus Factor XIa
T2 construct: gene PRSS1
T2 sequence (P00760 24-246): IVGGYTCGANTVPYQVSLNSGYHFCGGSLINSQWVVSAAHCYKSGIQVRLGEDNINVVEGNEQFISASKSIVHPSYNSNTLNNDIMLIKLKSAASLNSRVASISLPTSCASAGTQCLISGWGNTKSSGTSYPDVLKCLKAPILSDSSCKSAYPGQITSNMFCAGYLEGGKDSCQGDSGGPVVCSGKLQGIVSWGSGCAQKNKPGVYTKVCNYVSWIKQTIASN
Procedure: as §1, §2

human Factor XIa = human Factor XIa (Homo sapiens, UniProt P03951); assay: Factor XIa enzyme inhibition assay (dose response, fluorogenic AMC substrate); format: biochemical; design: Enzyme: Factor XIa; settings: purified enzyme; substrate 50 μM, enzyme 0.25 nM; read-out: hFXIa IC50
Chain of human Factor XIa (P03951 388-625 limits assumed): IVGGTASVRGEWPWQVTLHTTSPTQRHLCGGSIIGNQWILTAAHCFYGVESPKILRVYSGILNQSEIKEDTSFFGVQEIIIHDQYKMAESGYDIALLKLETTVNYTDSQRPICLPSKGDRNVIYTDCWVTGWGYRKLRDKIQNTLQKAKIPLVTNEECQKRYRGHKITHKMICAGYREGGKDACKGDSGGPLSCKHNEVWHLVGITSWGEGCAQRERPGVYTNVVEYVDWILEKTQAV
Chain of human Factor XIa (P03951 19-387 partner limits assumed): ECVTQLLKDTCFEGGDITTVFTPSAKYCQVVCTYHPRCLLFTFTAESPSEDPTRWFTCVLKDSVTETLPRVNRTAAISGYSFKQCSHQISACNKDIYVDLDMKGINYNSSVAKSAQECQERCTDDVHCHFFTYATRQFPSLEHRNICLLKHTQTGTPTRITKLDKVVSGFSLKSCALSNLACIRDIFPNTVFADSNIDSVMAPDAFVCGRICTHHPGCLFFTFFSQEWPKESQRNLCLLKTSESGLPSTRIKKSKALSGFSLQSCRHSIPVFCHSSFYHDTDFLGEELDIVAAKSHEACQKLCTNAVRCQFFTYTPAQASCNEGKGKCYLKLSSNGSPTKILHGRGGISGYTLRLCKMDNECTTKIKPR
Method in brief: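 Fluorogenic assay in 20 mM Hepes pH 7.4, 150 mM NaCl, 0.02% Tween 20 with 0.25 nM enzyme and 50 μM Glp-Pro-Arg-AMC (final). Fluorescence read every minute for 30 min at 30 °C after serial two-fold compound dilution; IC50 from four-parameter Hill fit of dose-response curves.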

Thrombin = target: T3, Thrombin (Homo sapiens, UniProt P00734); assay: Dose response assay for protease inhibitors: thrombin; format: biochemical; settings: ratio versus Factor XIa
T3 construct: Thrombin; 0.2 μM in 50% glycerol (7.34 μg/mL)
Procedure: as §1, §2

[1] = Metabolic stability in dog hepatocytes; format: in vitro ADME; settings: pooled cryopreserved hepatocytes; beagle dog hepatocytes, 2 μM compound, 500,000 cells/mL, 37° C.; read-out: Dog Hepatocyte Stability (T½: min)
Procedure: The following procedure was used to determine the stability of test compounds in beagle dog hepatocytes in a 96-well plate format. The test compounds, including the controls, imipramine and 7-ethoxycoumarin, were dissolved at 10 mM in DMSO, followed by further 5-fold dilution with DMSO to 2 mM. Pooled cryopreserved beagle dog hepatocytes were thawed and transferred into complete medium. Cells were gently centrifuged (700 rpm for 5 min) and the pellet rinsed with KHB (Krebs Henseleit buffer). Cells were resuspended, counted using Trypan blue, and adjusted to 1 million cells/mL in KHB buffer. The 2 mM compound stock solutions were diluted 10-fold with acetonitrile, followed by a further 50-fold dilution with KHB buffer. 200 μL of these compound solutions were transferred to 96-well polypropylene assay plates and an equal volume of the hepatocyte solution was added and mixed to initiate the reaction (final assay concentrations were 2 μM compound and 500,000 cells/mL). Assay plates were incubated at 37° C. in 5% CO2 with gentle agitation. 50 μL aliquots were removed at multiple time points out to 180 minutes and quenched with 6 volumes of cold acetonitrile (containing 250 ng/mL of carbutamide and chrysin as internal standards) to terminate the reaction and precipitate protein. Quenched samples were maintained on ice. The quenched samples were centrifuged at 2000×g (3100 rpm) for 10 minutes at 4° C. 50 μL aliquots of the supernatants were removed and diluted with 100 μL Milli-Q water to reduce the % organic content prior to bioanalysis by LC-MS/MS. Peak areas corresponding to the test compound were recorded. The compound remaining was calculated by comparing the peak area at each time point to time zero. Data were analyzed and results were calculated using Microsoft Excel 2010.

T1 sequence (P00742 235-488 limits assumed): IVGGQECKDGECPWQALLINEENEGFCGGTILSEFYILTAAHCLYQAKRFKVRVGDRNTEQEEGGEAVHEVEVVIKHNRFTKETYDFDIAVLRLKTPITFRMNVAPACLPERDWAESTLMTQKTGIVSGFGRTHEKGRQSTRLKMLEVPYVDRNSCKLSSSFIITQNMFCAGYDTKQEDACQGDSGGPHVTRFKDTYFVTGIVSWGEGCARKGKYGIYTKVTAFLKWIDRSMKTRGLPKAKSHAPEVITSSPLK
T1 sequence (P00742 41-179 partner limits assumed): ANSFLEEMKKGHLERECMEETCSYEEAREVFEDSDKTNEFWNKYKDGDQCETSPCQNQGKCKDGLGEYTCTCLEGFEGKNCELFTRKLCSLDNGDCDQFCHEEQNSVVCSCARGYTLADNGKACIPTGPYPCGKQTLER

Row | FXa/FXIa (selectivity ratio) (Factor Xa) | Ratio: Trypsin/FXIa (Trypsin) | IC50 (human Factor XIa) [nM] | Ratio: Thrombin/FXIa (Thrombin) | half-life at 2 μM [1] [h] | Structure (SMILES)
1 | H (“H” indicates 101-1000) | G (“G” indicates 1-100) | 10 to 100 | G (“G” indicates 1-100) |  | Cc1ccccc1N(C)C(=O)[C@@H]1[C@@H](Cc2ccnc(N)c2)C(=O)N1C(=O)N[C@@H](C1CCCCC1)C(F)(F)F [Compound 15]
2 | H (“H” indicates 101-1000) | G (“G” indicates 1-100) | 10 to 100 | G (“G” indicates 1-100) |  | CN(C(=O)[C@@H]1[C@@H](Cc2ccnc(N)c2)C(=O)N1C(=O)N[C@@H](C1CCCCC1)C(F)(F)F)c1cccnc1 [Compound 17]
3 | I (“I” indicates >500) | G (“G” indicates 1-100) | < 10 | H (“H” indicates 101-1000) |  | CN(C(=O)[C@@H]1[C@@H](Cc2ccnc(N)c2)C(=O)N1C(=O)N[C@@H](C1CCCCC1)C(F)(F)F)c1ccncc1 [Compound 18]
4 | H (“H” indicates 101-1000) | G (“G” indicates 1-100) | < 10 | G (“G” indicates 1-100) |  | CN(C(=O)[C@@H]1[C@@H](Cc2ccnc(N)c2)C(=O)N1C(=O)N[C@@H](C1CCCCC1)C(F)(F)F)c1cncnc1 [Compound 19]
5 | I (“I” indicates >500) | G (“G” indicates 1-100) | < 10 | H (“H” indicates 101-1000) | < 1 | CN(C(=O)[C@@H]1[C@@H](Cc2ccnc(N)c2)C(=O)N1C(=O)N[C@@H](C1CCCCC1)C(F)(F)F)c1ncccn1 [Compound 21]
6 | H (“H” indicates 101-1000) | G (“G” indicates 1-100) | < 10 | G (“G” indicates 1-100) |  | CN(C(=O)[C@@H]1[C@@H](Cc2ccnc(N)c2)C(=O)N1C(=O)N[C@@H](C1CCCCC1)C(F)(F)F)c1cccc(F)c1 [Compound 22]
7 | H (“H” indicates 101-1000) | G (“G” indicates 1-100) | 10 to 100 | G (“G” indicates 1-100) |  | CCN(C(=O)[C@@H]1[C@@H](Cc2ccnc(N)c2)C(=O)N1C(=O)N[C@@H](C1CCCCC1)C(F)(F)F)c1ccccc1 [Compound 24]
8 | I (“I” indicates >500) | G (“G” indicates 1-100) | < 10 | I (“I” indicates >500) | 2.02 to 4 | CC[C@@H](NC(=O)N1C(=O)[C@H](Cc2ccnc(N)c2)[C@H]1C(=O)N(C)c1ccncc1)C1CCCCC1 [Compound 25]
9 | I (“I” indicates >500) | G (“G” indicates 1-100) | < 10 | H (“H” indicates 101-1000) | 2.02 to 4 | CC[C@@H](NC(=O)N1C(=O)[C@H](Cc2ccnc(N)c2)[C@H]1C(=O)N(C)c1ccccc1)C1CCCCC1 [Compound 27]
10 | I (“I” indicates >500) | G (“G” indicates 1-100) | < 10 | H (“H” indicates 101-1000) | < 1 | CN(C(=O)[C@@H]1[C@@H](Cc2ccnc(N)c2)C(=O)N1C(=O)N[C@@H](C1CCCCC1)C1CC1)c1ccccc1 [Compound 36]
11 | I (“I” indicates >500) | G (“G” indicates 1-100) | < 10 | I (“I” indicates >500) | < 1 | CC[C@@H](NC(=O)N1C(=O)[C@H](Cc2ccnc(N)c2)[C@H]1C(=O)N(CC)c1ncccn1)C1CCCCC1 [Compound 39]
12 | I (“I” indicates >500) | G (“G” indicates 1-100) | < 10 | H (“H” indicates 101-1000) | 2.02 to 4 | CC[C@@H](NC(=O)N1C(=O)[C@H](Cc2ccnc(N)c2)[C@H]1C(=O)N(C)c1ccncc1)c1ccccc1 [Compound 42]
13 | I (“I” indicates >500) | G (“G” indicates 1-100) | < 10 | G (“G” indicates 1-100) | 2.02 to 4 | CC[C@@H](NC(=O)N1C(=O)[C@H](Cc2ccnc(N)c2)[C@H]1C(=O)N(C)c1ccccc1)c1cccnc1 [Compound 44]
14 | H (“H” indicates 101-1000) | G (“G” indicates 1-100) | 10 to 100 | G (“G” indicates 1-100) |  | CC[C@@H](NC(=O)N1C(=O)[C@H](Cc2ccnc(N)c2)[C@H]1C(=O)N(C)c1ccccc1)C1CC1 [Compound 46]
15 | I (“I” indicates >500) | G (“G” indicates 1-100) | < 10 | H (“H” indicates 101-1000) | < 1 | C[C@@H](NC(=O)N1C(=O)[C@H](Cc2ccnc(N)c2)[C@H]1C(=O)N(C)c1ccccc1)C1CCCCC1 [Compound 49]
16 | I (“I” indicates >500) | G (“G” indicates 1-100) | < 10 | G (“G” indicates 1-100) | 1.02 to 2 | CCC[C@@H](NC(=O)N1C(=O)[C@H](Cc2ccnc(N)c2)[C@H]1C(=O)N(C)c1ccccc1)C1CCCCC1 [Compound 50]
17 | H (“H” indicates 101-1000) |  | 10 to 100 | H (“H” indicates 101-1000) | 2.02 to 4 | CN(C(=O)[C@@H]1[C@@H](Cc2ccnc(N)c2)C(=O)N1C(=O)N[C@@H](C1CC1)C(F)(F)F)c1ccncc1 [Compound 77]
18 | I (“I” indicates >500) |  | 10 to 100 | H (“H” indicates 101-1000) | < 1 | CN(C(=O)[C@@H]1[C@@H](Cc2ccnc(N)c2)C(=O)N1C(=O)N[C@@H](C1CC1)C(F)(F)F)c1ncccn1 [Compound 78]
